Experimental data: patent US20180311334A1, “Compositions and Methods for Inducing an Immune Response” (Yale University, priority 2017, published 2018)

Columns and labels:
[1] = system: murine bone marrow-derived macrophages; assay: qPCR of cytokine mRNA in bone marrow-derived macrophages (BMM); assay type: cell-based, C57BL/6 mice; conditions: 1 μM soluble xyliquimod, 12 hours, WT and TLR7KO BMM
Description: Finally, before leaving the sortase-based xyliquimod incorporation approach behind altogether, it was tested it in a more physiologically relevant experimental system. To this end, stimulations in murine bone marrow-derived macrophages (BMM) were performed and the resulting immune responses were assessed by quantifying expression of IL-1β, a pro-inflammatory cytokine transcriptionally regulated by NFκB. Besides more accurately recapitulating the physiological response to an immune stimulus than the RAW-NFκB-sLuc assay, the primary macrophage model offered two additional advantages over reporter cell lines. First, the dynamic range of qPCR analysis is far greater than that of the luciferase assay, so smaller differences in immune activation can be detected more readily. […]
After stimulation of BMDCs and BMMs, the supernatant was removed, cells were lysed, and RNA was isolated using the RNeasy kit (Qiagen, Germantown, Md.) according to manufacturer's instructions. cDNA was reverse-transcribed with an oligo(dT) primer using Moloney murine leukemia virus reverse transcriptase (MMLV RT). cDNA was analyzed in triplicate by qPCR amplification using SYBR Green Supermix (Life Technologies, Carlsbad, Calif.) on a Bio-Rad CFX96 Real-Time PCR Detection System (Bio-Rad, Hercules, Calif.). […]

WT S. aureus Newman = assay: S. aureus growth in presence of copper (optical density); assay type: cell-based, Staphylococcus aureus; conditions: 2 mM copper, 4.25 hours, absorbance at 600 nm
Description: WT S. aureus Newman was grown in the presence and absence of 2 mM copper for 4.25 hours. Growth was monitored by optical density: absorbance measurements were taken every 15 minutes at 600 nm.

Molecule	IL-1β mRNA expression [1]	S. aureus growth (WT S. aureus Newman)
CCCCc1nc2c(N)nc3ccccc3c2n1Cc1ccc(CN)cc1 [xyliquimod, 1-(4-(aminomethyl)benzyl)-2-butyl-1Himidazo[4,5-c]quinolin-4-amine]	active in WT and not TLR7KO macrophages	
copper		completely inhibit S. aureus growth
